# Columns and labels:
# [1] = Accelerated oxidation, Rancimat test of Polysorbate 80 coating on silica; format: physicochemical
# Protocol: Solid silica particles (LuctaCarrier™ silica, Lucta, S. A., Barcelona, Spain) are coated 50% wt/wt (based of the combined weight of the particles and coating) with a mixture of polyethylene 20 sorbitan monooleate (Polysorbate 80) and an amount of the antioxidants set forth in the tables, below, or no antioxidant as a control. The solid antioxidants (e.g., BHA or BHT) are dissolved in a suitable solvent (e.g., ethyl alcohol) and then mixed with the Polysorbate 80 at the listed concentration levels. The oxidative stability of the coating is then determined using the Rancimat test. Oxidative stability relates to how easily components of oil oxidize which creates off-flavors in the oil, and is measured by instrumental analysis using accelerated oxidation methods. American Oil Chemists' Society Official Method Cd 12-57 for Fat Stability: Active Oxygen Method (re'vd 1989); Rancimat (Laubli, M. W. and Bruttel, P. A., JOACS 63:792-795 (1986)); Joyner, N. T. and J. E. McIntyre, Oil and Soap (1938) 15:184 (modification of the Schaal oven test). The Rancimat method has been developed as the automated version of the AOM method (active oxygen method) for the determination of the induction time of fats and oils. In this method the highly volatile organic acids produced by autoxidation are absorbed in water and used to indicate the induction time. As used in the following tables, the abbreviations have the following meanings: […]
# rumen cellulase activity = test: In vitro cellulose degradation by rumen bacterial inoculum; format: biochemical, cows; settings: 0.25% surfactant in reaction mixture; regression on initial 24 hr
# Protocol: A bacterial fraction, largely free of protozoa, was prepared for the fermentation assays by using the procedure of Forsberg, “Some Effects of Arsenic on the Rumen Microflora; An In Vitro Study,” Can. J. Microbiol. 24:36 (1978). The digesta inoculum was resuspended and washed twice in an equivalent amount of 0.1 M phosphate buffer pH 6.8 to the rumen fluid. The inoculum provided both, the substrate and the enzyme used for cellulose degradation assay. Incubation periods were 0, 1.5, 3, 6, 12, 24, and 48 hr. Other incubation conditions were similar to those outlined in experiment 1 above. However, cellulose was determined by the method of Updergraff, supra, for the in vivo digestibility trial. The optimal level of Tween 80 obtained was adopted here and followed.
# [2] = Griffin et al., 1972; cited from earlier work
# [3] = system: rumen microbial proteinases; test: Protease activity of mixed rumen microbial cell enzyme source (casein substrate); format: biochemical, cows
# Protocol: Two rumen-fistulated, nonlactating cows averaging 623±12.5 kg in weight were fed 5 kg dry matter (DM) of low quality timothy hay twice daily. About 2.5L of rumen fluid was collected through the fistula 4 hrs after the morning feeding at 07:00 hrs. Bulk feed particles were removed by sieving the fluid through a 0.5 mm strain. The fluid was then composited and then stored in a prewarmed (37° C.) thermal container.
# A microbial powder was prepared using the acetone-butanol extraction procedure outlined by Mahadevan et al., “Preparation of protease from mixed rumen microorganisms and its use for the in vitro determination of true protein in feedstuffs,” Can. J. Anim. Sci. 67:55 (1987). About 500 g of this powder was prepared and stored at −20° C. Extraction of the proteases was accomplished by stirring 250 g of the powder with 1L of 4° C. cold water (for 1 hr) and then proceeding along Mahadevan's extraction procedure. Only extracts from the filtration with an XM-300 Amicon Filter, (approx. 300 000 molecular weight cutoff—under nitrogen gas), were made, washed twice with distilled water and the retentate freeze dried. This was referred to as the mixed microbial cell enzyme source. It was used in the protein adhesion tests and also in the parallel thiol and protease activity determinations.
# Ten grams of the mixed microbial cell enzyme was dissolved in 100 ml warm (37° C.) 0.1 M phosphate buffer, pH 6.8, and used as an enzyme inoculant. The assay matrix consisted of 1 ml enzyme source, 1 ml 2% casein solution, 1 ml 01 M phosphate buffer and 1 ml of either the relevant level of surfactant or an equivalent amount of buffer. Ten levels of the two surfactants, polyoxyethylene sorbitan monoleate (Tween 80) and polyoxyethylene sorbitan monastearate (Tween 60) were tested, viz 0, 0.08, 0.16, 0.24, 0.32, 0.4, 0.8, 1.2, 1.6, and, 2.0% surfactant in the assay mixture.
# The protease activity incubations were performed in 50 ml plastic centrifuge tubes, at 37° C. and under a stream of carbon dioxide gas. After 1.5 hr, 1 ml of the assay mixture was removed for the determination of thiols (SH) and disulfides (SS) (Sasago et al., “Determination of sulfhydryl and disulfide groups in milk by p-chloromercuribenzoate-diathizone method,” J. Dairy Sci. 46:1348-1351 (1963)). At the end of 2 hr incubation, the reaction was stopped with 1 ml of 15% TCA (trichloroacetic acid) solution, cooled to 4° C. under an icebath, and centrifuged at 10,000 for 10 min. The free amino acids in the supernatant were assayed using the ninhydrin method (Rosen, “a Modified Colorimetric Analysis For Amino Acids,” Arch. Biochim. Biophys. 67:10 (1957)). The optimal surfactant inclusion level was calculated by direct linear plots on the assumption that the Michaellis-Menten equation applied.
# [4] = Shelf life test, sensory panel rancidity score at 40° C.; format: physicochemical; settings: 1000 ppm
# Protocol: The nonionic surfactant polyoxyethylene 20 sorbitan monooleate (Polysorbate 80) is coated in an amount of 50% wt/wt onto silica particles (i.e., in the proportion 50 g. of Polysorbate 80 per 50 g. of silica), either without (control) or with added antioxidant. A shelf life test is performed by measuring, using a sensory panel, the level of rancid odor of samples stored at 40° C., with a rancidity score being assigned to each sample (with a score of 0 for no rancid odors and 10 for highest level of rancid odors. The results are shown in Table 13, below.
# [5] = direct linear plots, Michaelis-Menten assumed
compound,measurement,setting,value
"Cc1cc(C(C)(C)C)c(O)c(C(C)(C)C)c1 [BHT, butylated hydroxytoluene]",Rancimat Stability,"[1]; Table 7, 200 ppm in Polysorbate 80 coating on silica",1.75 h
same,Rancimat Stability,"[1]; Table 8, 200 ppm",1.85 h
same,Rancimat Stability,"[1]; Table 9, 200 ppm",4.45 h
same,Rancimat Stability,"[1]; Table 10, 200 ppm",6.15 h
polyoxyethylene sorbitan monastearate [Tween 60],Initial rate of cellulose degradation,rumen cellulase activity,0.87b (0.28) μg/ml/hr
same,HLB (hydrophile-lipophile balance),[2],14.9
same,Initial rate of proteinase activation,[3]; control=0,98.04%
same,"Km (additive conc.), proteinase activation",[3]; [5],0.28 ± 0.02a %
same,Vmax (maximum proteinase activation),[3]; [5],99.2 ± 2.7a %/unit additive conc.
"CCOc1ccc2c(c1)C(C)=CC(C)(C)N2 [EQ, ethoxyquin]",Rancidity Score,"[4]; 1 week, score 0 (no rancid odors) to 10",1.0
same,Rancidity Score,[4]; 2 weeks,2.0
same,Rancidity Score,[4]; 6 weeks,3.5
same,Rancidity Score,[4]; 10 weeks,5.0
